# Assay results reported in PubChem BioAssay (NCI).
#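 Here, GI50 denotes the concentration required for 50% inhibition of growth. The concentration for full growth arrest is given as TGI.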
# Columns and labels:
# Assay in all cases: inhibition of tumour cell growth, NCI panel, 384-well format
# [1] = system: MALME-3M melanoma
# [2] = system: TK-10 renal
# [3] = system: CAKI-1 renal
# [4] = system: BT-549 breast
# [5] = system: 786-0 renal
# [6] = system: M14 melanoma
# [7] = system: NCI-H522 lung
# [8] = system: SF-295 CNS
# [9] = system: NCI-H23 lung
# [10] = system: HT29 colon
# [11] = system: MDA-MB-468 breast
# [12] = system: RPMI-8226 leukemia
# [13] = system: A498 renal
# [14] = system: DU-145 prostate
# [15] = system: U251 glioblastoma
# [16] = system: HOP-62 NSCLC
# [17] = system: ACHN renal
# [18] = system: UACC-257 melanoma
# [19] = system: CCRF-CEM leukemia
# [20] = system: NCI/ADR-RES ovarian
# [21] = system: SF-539 CNS
# [22] = system: COLO 205 colon
# [23] = system: K-562 leukemia
# [24] = system: MOLT-4 leukemia
# [25] = system: RXF 393 renal
# [26] = system: PC-3 prostate
# [27] = system: SW-620 colon
# [28] = system: OVCAR-4 ovarian
# [29] = system: A549 NSCLC
# [30] = system: HOP-92 NSCLC
# [31] = system: OVCAR-3 ovarian
# [32] = system: SNB-75 CNS
# [33] = system: OVCAR-8 ovarian
# [34] = system: HCT-15 colon
# [35] = system: SN12C renal
# [36] = system: HL-60(TB) leukemia
# [37] = system: MDA-MB-435 melanoma
# [38] = system: NCI-H322M lung
# [39] = system: HS 578T breast
# [40] = system: NCI-H226 lung
# [41] = system: HCT-116 colon
# [42] = system: IGROV1 ovarian
# [43] = system: MCF7 breast
# [44] = system: SK-MEL-2 melanoma
# [45] = system: LOX IMVI melanoma
# [46] = system: SK-MEL-28 melanoma
# [47] = system: SK-MEL-5 melanoma
# [48] = system: SF-268 CNS
# [49] = system: SNB-19 CNS
# [50] = system: KM12 colon
# [51] = system: HCC-2998 colon
# [52] = system: NCI-H460 NSCLC
# [53] = system: EKVX NSCLC
# [54] = system: SK-OV-3 ovarian
# [55] = system: UACC-62 melanoma
structure (smiles),measurement,setting,value
O=C(Nc1cccc(Br)c1)Oc1ccc(Cl)c2cccnc12,GI50,[1],2.79 µM
same,TGI,[1],7.77 µM
same,GI50,[2],18.5 µM
same,TGI,[2],47.4 µM
same,GI50,[3],2.61 µM
same,TGI,[3],6.82 µM
same,GI50,[4],3.75 µM
same,TGI,[4],15.4 µM
same,GI50,[5],14.3 µM
same,TGI,[5],27.5 µM
same,GI50,[6],2.68 µM
same,TGI,[6],6.58 µM
same,GI50,[7],2.01 µM
same,TGI,[7],4.04 µM
same,GI50,[8],4.71 µM
same,TGI,[8],16.3 µM
same,GI50,[9],1.98 µM
same,TGI,[9],3.91 µM
same,GI50,[10],14.4 µM
same,TGI,[10],27.6 µM
same,GI50,[11],2.54 µM
same,TGI,[11],4.16 µM
same,GI50,[12],1.65 µM
same,TGI,[12],3.08 µM
same,GI50,[13],4.23 µM
same,TGI,[13],13.1 µM
same,GI50,[14],4.76 µM
same,TGI,[14],19.7 µM
same,GI50,[15],3.9 µM
same,TGI,[15],11.2 µM
same,GI50,[16],3.43 µM
same,TGI,[16],6.55 µM
same,GI50,[17],3.98 µM
same,TGI,[17],15 µM
same,GI50,[18],2.6 µM
same,TGI,[18],4.37 µM
same,GI50,[19],1.6 µM
same,TGI,[19],3.01 µM
same,GI50,[20],2.57 µM
same,TGI,[20],4.9 µM
same,GI50,[21],3.26 µM
same,TGI,[21],10.4 µM
same,GI50,[22],4.37 µM
same,TGI,[22],12.1 µM
same,GI50,[23],13.5 µM
same,TGI,[23],27 µM
same,GI50,[24],1.73 µM
same,TGI,[24],3.16 µM
same,GI50,[25],2.63 µM
same,TGI,[25],9.07 µM
same,GI50,[26],2.37 µM
same,TGI,[26],5.64 µM
same,GI50,[27],4.45 µM
same,TGI,[27],13.8 µM
same,GI50,[28],4.88 µM
same,TGI,[28],15.9 µM
same,GI50,[29],11 µM
same,TGI,[29],23.8 µM
same,GI50,[30],3.59 µM
same,TGI,[30],9.38 µM
same,GI50,[31],1.91 µM
same,TGI,[31],3.64 µM
same,GI50,[32],2.96 µM
same,TGI,[32],8.36 µM
same,GI50,[33],2.29 µM
same,TGI,[33],4.86 µM
same,GI50,[34],3.74 µM
same,TGI,[34],10.6 µM
same,GI50,[35],3.56 µM
same,TGI,[35],14.9 µM
same,GI50,[36],0.42 µM
same,TGI,[36],1.42 µM
same,GI50,[37],5.71 µM
same,TGI,[37],19.1 µM
same,GI50,[38],15.3 µM
same,TGI,[38],31.4 µM
same,GI50,[39],5.86 µM
same,TGI,[39],18.9 µM
same,GI50,[40],1.62 µM
same,TGI,[40],3.12 µM
same,GI50,[41],2.02 µM
same,TGI,[41],3.77 µM
same,GI50,[42],1.49 µM
same,TGI,[42],3.35 µM
same,GI50,[43],2.04 µM
same,TGI,[43],4.28 µM
same,GI50,[44],2.39 µM
same,TGI,[44],4.87 µM
same,GI50,[45],3.36 µM
same,TGI,[45],12.3 µM
same,GI50,[46],3.5 µM
same,TGI,[46],9.22 µM
same,GI50,[47],2.01 µM
same,TGI,[47],4.53 µM
same,GI50,[48],3.33 µM
same,TGI,[48],12.1 µM
same,GI50,[49],4.2 µM
same,TGI,[49],15.4 µM
same,GI50,[50],7.59 µM
same,TGI,[50],19.7 µM
same,GI50,[51],15.4 µM
same,TGI,[51],28.9 µM
same,GI50,[52],3.22 µM
same,TGI,[52],9.1 µM
same,GI50,[53],2.6 µM
same,TGI,[53],5.8 µM
same,GI50,[54],15.4 µM
same,TGI,[54],28.9 µM
same,GI50,[55],3.73 µM
same,TGI,[55],10.8 µM
